The text below walks through data of patent US12617835B2, “Chimeric autoantibody receptor (CAAR) that binds autoantibodies targeting the central nervous system in neurological autoimmune disease” (Deutsches Zentrum für Neurodegenerative Erkrankungen e. V. …, priority 2019, dated 2026).

Experiment [1] relates to Nalm6 target cells expressing NR1-reactive antibody #003-102. In words: Luciferase-assay of specific lysis of Nalm6 target cells, with or without Dasatinib. The experiment is classed as cell-based. On the procedure: For quantification of cell killing, Nalm6 target cells expressing NR1-reactive antibody #003-102 were incubated with CAAR T-cells at different Effector:Target (E:T) ratios ranging from 1:2 to 8:1 for 18 hours. Percentage of specific lysis was determined by reduction of bioluminescence in a Luciferase-assay.
Results are depicted in FIG. 10.

Experiment [2] deals with K562 cells expressing NR1-reactive antibodies on their surface. Description: Interferon-γ release on co-culture with K562 cells expressing surface NR1-reactive antibodies. The experiment is classed as cell-based. As to conditions: 50,000 T-cells co-cultured 1:1 with K562 cells, 48 hours. On the procedure:
50,000 CAAR T-cells were co-cultured 1:1 with K562 cells expressing NR1-reactive or control antibodies on their surface for 48 hours.

Experiment [3] relates to Nalm6 cells with surface-presentation of NR1 autoantibody #003-102. Description: In vivo bioluminescence imaging of Nalm6 burden in mice. As to conditions: bioluminescence on day 9 (4 days post-treatment); preliminary data. How it is done:
Nalm6 cells with surface-presentation of NR1 autoantibody and expressing a Luciferase enzyme (e.g. firefly-Luciferase) tagged with a fluorescent protein (e.g. GFP), are injected on day 1 into mice. On day 5, therapeutic CAAR-T cells expressing a CAAR of the present invention or control T cells without CAAR expression are injected. Bioluminescence imaging is conducted regularly, for example at time points 1, 5, 8, 12, 15, 19 and 22 days, to assess therapeutic effect against the Nalm6 cells. […]
In order to show therapeutic efficacy in an animal model in vivo, Nalm6 cells with surface-presentation of NR1 autoantibody #003-102 or #008-218 and expressing the Luciferase enzyme firefly-Luciferase (ffluc) tagged with a fluorescent protein (GFP, green fluorescent protein), were injected on day 1 into 16 mice. […] As a read-out of the assay, animal survival, target cell reduction (via in vivo bioluminescence measurements) and serum antibody levels are determined. […]
The potential readouts for the assay relate to bioluminescence imaging quantification (for the detection of in vivo killing), quantification of anti-NR1 serum levels by ELISA (for the detection of reduction of circulating antibodies), and postmortem analysis of treated animals (in order to determine off-target toxicity). […]

The test system of experiment [4] is K562 cells expressing surface NR1-reactive antibodies. In words: Cell lysis of K562 target cells (7-AAD, flow cytometry). The experiment is classed as cell-based. As to conditions: E:T ratios 30:1 to 1:1, 4 hours. On the procedure:
For quantification of cell killing, target cells were incubated with CAAR T-cells at different Effector: Target (E:T) ratios ranging from 30:1 to 1:1 for 4 hours. Dead cells were stained by 7-AAD and analyzed by flow cytometry.
Target K562 cells were incubated with CAAR T-cells at different Effector:Target (E:T) ratios ranging from 30:1 to 1:1.
On the technique in general: In flow cytometry, cells or beads pass a laser one at a time.

As to “ATD-S1-S2-CAAR: T cells transduced with CAAR: CD8 leader/NMDAR ATD-S1-Linker1-S2/Linker2/CD8a TM/CD137 co-stim/CD3z signaling”, in experiment [1] (Dasatinib (safety strategy)), the “inactivation of CAAR T cells by Dasatinib” value was “temporarily halted”. Also, in experiment [1] (E:T ratios 1:2 to 8:1, 18 hours), the “killing of Nalm6 target cells” value is listed as “dose-dependent killing”. Besides, the “release of interferon-γ” value in experiment [2] is recorded as “massively released”. In experiment [3], the “animals with drastic reduction of Nalm6 burden” value is recorded as 5/6. In experiment [4], the “killing of K562 cells expressing surface NR1-reactive antibodies” value is “dose-dependent killing”.
